Data: PMC12668304, “A Triple Threat Against Ovarian Cancer: Os(II)‐Pt(IV)‐Ceritinib Conjugates for Photodynamic Therapy, Chemotherapy, and Immunogenic Cell Death Induction” (Angewandte Chemie (International Ed. in English), 2025)
Where two headings read alike, the source gives them in different places.

Columns and labels:
[1] = test system: RPE‐1 cells; experiment: (Photo-)cytotoxicity on 2D cell monolayers, resazurin assay; type: cell-based; settings: for IC50: RPE‐1, normoxic, 4 h exposure
Experimental: (§1) The 2D cytotoxicity and phototoxicity profiles of Os‐Pt‐Cer and controls, were evaluated in a panel of cancerous cell lines, including A2780 (ovarian carcinoma), A549 (non‐small cell lung carcinoma), and MCA205 (murine fibrosarcoma), as well as a non‐cancerous retinal pigment epithelial cell line (RPE‐1). Cells were treated with the compounds (0.003–100 µM) for 4 h, either kept in the dark or irradiated at 670 nm (13.5 J cm^− ^2) (Table S4 and Figure S22) or 740 nm (12.6 J cm^− ^2) and viability was assessed 44 h post‐treatment. To verify robustness, the incubation was extended to 72 h. […]
(§2) Human ovarian cancer (A2780) cells and mouse fibrosarcoma cells (MCA205) were cultured in RPMI media. Retinal pigment epithelium (RPE -1) cells were cultured in DMEM/F -12 medium. Lung cancer cells (A549) were cultured in F -12K medium. These cell lines were complemented with 10% of fetal bovine serum, 100 U/mL penicillin -streptomycin mixture, and maintained in a humidified atmosphere […]
(§3) (Photo-)cytotoxicity on 2D cell monolayers
(§4) The cytotoxicity of the compounds was assessed by measuring cell viability using a resazurin assay.
(§5) The cells were seeded in triplicates in 96 well plates with a density of 10 4 cells per well in 100 μL of media. After 24 h, the medium was removed, and the cells were treated with increasing concentrations (0.003 → 100 µM) of the compounds diluted in cell media , achieving a total volume of 100 μL/well.
(§6) The cells were incubated with the compound for 4 h (final incubation time 48 h) or 24 h (final incubation time 72 h). After this time, the media was removed and replaced with 100 μL of fresh medium. For the phototoxicity studies, the cells were exposed to light with an Atlas Photonics LUMOS BIO irradiation system. Each well was constantly irradiated at 670 nm (60 min, 13.50 J·cm-2) or 740 nm (60 min, 12.60 J·cm-2). During the irradiation, the temperature of the plate was maintained at 37 °C. The cells were grown in the incubator for an additional 44 or 48 h, respectively. For the determination of the dark cytotoxicity, the cells were not irradiated and after the medium exchange directly incubated for 44 h.
(§7) After this time, the medium was replaced with fresh medium containing resazurin (0.2 mg/mL). After […]
(§8) 4 h of incubation, the conversion of resazurin into resorufin was determined upon excitation at 540 nm and measurement of its emission at 590 nm using a Cytation 5 Imaging Reader from BioTek. The obtained data was analysed with the GraphPad Prism software […]
(§9) After 24 h of incubation at 37 °C, 5% CO 2, plates were read using a SpectraMaxM2 Microplate Reader ( λexc = 540 nm; λread = 590 nm). Fluorescence data were normalised, and data were fitted using GraphPad Prism Software, and IC 50 was calculated by non - linear regression. Changes in the size and shape of MCTS were monitored every 24 h using Cytation 5 Imaging Reader from BioTek, objective x4.
(§10) Intracellular distribution by confocal fluorescence microscopy
(§11) 10^4 cells/well (A2780 cells) were seeded in complete medium (RPMI) in µ -slide 8 well (Ibidi) (100 µl/well) and left for 24 h to attach to the bottom. Then, the culture medium was removed , and 100 µl of solution of the corresponding complexes (5 µM) was added. The complexes were incubated with the cells for 4 hours. Thereafter, the medium was removed and replaced by RPMI without phenol red , and Hoechst and MitoTracker Green were added at a final concentration of 1 µg/mL. They were incubated with the cells for 30 min in the dark at 37 °C. Images were collected in a sequential mode in a Leica TCS SP8 confocal microscope with a 60x oil immers ion objective, a line average of 4, and a format of […]
(§12) (MTG)→ 500 -550nm, and 488 nm (complexes)→ 680 -730 nm. The confocal pinhole was 1 Airy unit.
(§13) Images were analysed with LAS X Flim FCS software.
(§14) Intracellular distribution by ICP -MS

[2] = test system: A2780 cells; experiment: as above; type: cell-based, human; settings: for IC50: A2780, normoxic, 4 h exposure
Experimental: as §1, §2, §3, §4, §5, §6, §7, §8, §9, §10, §11, §12, §13, §14

[3] = test system: MCA205 cells; experiment: as above; type: cell-based, mouse; settings: MCA205, normoxic, dark, 4 h exposure, total 48 h incubation; read-out: IC50 Dark
Experimental: as §1, §2, §3, §4, §5, §6, §7, §8, §9, §10, §11, §12, §13, §14

[4] = test system: A549 cells; experiment: as above; type: cell-based; settings: A549, normoxic, dark, 4 h exposure, total 48 h incubation; read-out: IC50 Dark
Experimental: as §1, §2, §3, §4, §5, §6, §7, §8, §9, §10, §11, §12, §13, §14

[5] = test system: A2780 MCTSs; experiment: (Photo-)cytotoxicity on 3D multicellular tumour spheroids, resazurin assay; type: cell-based, human; settings: normoxic, dark, one week of incubation, read-out: IC50 Dark
Experimental: A2780 spheroids (ca. 500 µm in diameter) were treated with increasing concentrations of the compounds and after 24 h of incubation, the medium was replaced with fresh medium, and the cells were either kept in the dark or irradiated for 1 h at 740 nm. Images of the spheroids were taken every 24 h for 3 days.
Additionally, the phototoxicity was tested via a fluorometric resazurin assay in A2780 MCTSs (Table 3). […] (Figure S29). […] This can be attributed to the different biological endpoints and time frames of the assays: spheroid diameter was monitored over 72 h, whereas resazurin measurements were performed after 7 days, potentially capturing delayed cytotoxic effects due to differences in drug cellular uptake.
4 h of incubation, the conversion of resazurin into resorufin was determined upon excitation at 540 nm and measurement of its emission at 590 nm using a Cytation 5 Imaging Reader from BioTek. The obtained data was analysed with the GraphPad Prism software
MCTS were cultured using ultra-low attachment 96 wells plates from Corning (Fisher Scientific 15329740). A2780 cells were seeded at a density of 1,500 cells per well in 100 μL of RPMI. Within 2-3 days, MCTSs have approximately 500 μm of diameter. The formation as well as integrity and diameter of the MCTSs were monitored by microscopy.
(Photo-)cytotoxicity on 3D multicellular tumor spheroids (MCTS)
After 2 days of growing at 37 °C in 5% CO2, the medium was removed, and MCTSs were treated by adding 100 μL of the medium in the well with increasing concentrations of compounds (Os-Pt-Cer, Os, Ceritinib, Oxaliplatin, cisplatin, and Ce6 as additional control). For untreated reference MCTSs, only half of the medium was added with fresh medium. After 24 hours, the MCTSs were divided into two identical groups. The first group was strictly kept in the dark. The second group was irradiated at 740 nm for 1 h (12.60 J·cm-2) using a LUMOS-BIO photoreactor (Atlas Photonics). After the irradiation, all groups were incubated additional 7 days. Thereafter, medium was replaced with 100 μL of fresh medium containing resazurin (0.2 mg/mL). After 24 h of incubation at 37 °C, 5% CO 2, plates were read using a SpectraMaxM2 Microplate Reader ( λexc = 540 nm; λread = 590 nm). Fluorescence data were normalised, and data were fitted using GraphPad Prism Software, and IC 50 was calculated by non - linear regression. Changes in the size and shape of MCTS were monitored every 24 h using Cytation 5 Imaging Reader from BioTek, objective x4. […]
Figure S29. Cell viability graphs after one week of incubation. Studied compounds were incubated for 24 h, thereafter the medium was renovated. For PDT, plates were irradiated at 740 nm for 1h using a LUMOS-BIO photoreactor (Atlas Photonics). For both PDT and regular cytotoxicity, cells were incubated for one week at 37 °C, 5 % CO2. The medium was renovated each two days. Then, the medium was replaced with 100 µL of fresh medium containing 0.2 mg/mL resazurin (Acros Organics). After 24 h of incubation, the fluorescence signal of the resazurin product was recorded (λexc = 540 nm; λem = 590 nm) using a Cytation 5 Cell Imaging Multi-Mode Reader (Biotek - Agilent).
(1 picture or pasted object on this page, not shown here)

[6] = parameters: method as in not given; settings: standard, acetonitrile; ref not given; cited from earlier work
[7] = Homo sapiens, 740 nm (60 min, 12.60 J·cm^−2), total 48 h, read-out: IC50 Irrad. 740 nm
[8] = Homo sapiens, dark, total 48 h incubation, read-out: IC50 Dark
[9] = dark, total 48 h incubation, read-out: IC50 Dark

**Q.** For `C=CC1=C(C)c2cc3[nH]c(cc4nc(cc5[nH]c(cc1n2)c(C)c5CCC(=O)O)C(CCC(=O)O)=C4C)c(C)c3C=C` [PPIX, Protoporphyrin], which IC50 [1, 7] is on record?
**A.** The IC50 was 41.6 ± 0.3 µM.

**Q.** And the IC50 [1, 8]?
**A.** The IC50 was greater than 100 µM.

**Q.** And the “PI (IC50 dark/IC50 irradiation 740 nm)” value ([1]; RPE‐1)?
**A.** Its value is no less than 2.

**Q.** And the “PI (IC50 dark/IC50 irradiation 740 nm)” value ([2]; A2780)?
**A.** Its value is no less than 6.

**Q.** What about the IC50 [2, 7] of the same molecule?
**A.** Its IC50 is 17.3 ± 0.01 µM.

**Q.** What about the IC50 [2, 8] of the same molecule?
**A.** The IC50 was greater than 100 µM.

**Q.** Which IC50 [3] does the source give for `N.N.[Cl][Pt][Cl]` [Cisplatin] here?
**A.** Its IC50 is 0.72 ± 0.2 µM.

**Q.** And the IC50 [1, 9]?
**A.** Its IC50 is 15.2 ± 0.7 µM.

**Q.** And the IC50 [4]?
**A.** The IC50 was 1.11 ± 0.33 µM.

**Q.** What about the IC50 [5] of the same molecule?
**A.** Its IC50 is 2 ± 0.4 µM.

**Q.** What about the IC50 [2, 9] of the same molecule?
**A.** Its IC50 is 1.92 ± 0.4 µM.

**Q.** What does the source list for `[Ru+2].c1ccc(-c2ccccn2)nc1.c1ccc(-c2ccccn2)nc1.c1ccc(-c2ccccn2)nc1` [Ru(bpy)3, Tris(2,2'-bipyridyl) ruthenium (II)]?
**A.** Quantum yield [6]: 0.077; Singlet oxygen quantum yield [6]: 0.77
